From the supplement of paper PMC10307832

Experiments:
Test in all cases: relative viability (nuclei count vs DMSO), 5 days (fraction); higher = more cells survive
[1] = system: NCI-H1793
Outline: (§1)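 Relative viability is defined as nuclei in treated wells over nuclei in vehicle wells. Duplicate plates were run and medians reported. Lung cancer cell lines in 1536-well plates were dosed by pin tool one day after seeding, with one drug or with a fixed anchor-drug dose plus five library-drug doses (not always all listed) in √10 steps, and nuclei were counted after 5 days.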

[2] = system: HCC-78
Outline: as §1

[3] = system: LCLC-97TM1
Outline: as §1

[4] = system: NCI-H2126
Outline: as §1

[5] = system: NCI-H2347
Outline: as §1

[6] = system: NCI-H441
Outline: as §1

[7] = system: NCI-H838
Outline: as §1

[8] = system: CAL-12T
Outline: as §1

[9] = system: SW 1573
Outline: as §1

[10] = system: NCI-H3122
Outline: as §1

[11] = system: SK-LU-1
Outline: as §1

[12] = system: NCI-H1915
Outline: as §1

## Cc1csc(=NC2CCCCC2)n1/N=C/c1ccc(O)c(O)c1O [MIM1] + Nc1nc2[nH]cc(CCc3ccc(C(=O)N[C@@H](CCC(=O)O)C(=O)O)cc3)c2c(=O)[nH]1 [Pemetrexed] (partner 0.2 µM)
[1]; first compound 2 µM
  relative viability: 1.13
[1]; first compound 6.325 µM
  relative viability: 0.848
[1]; first compound 20 µM
  relative viability: 0.936
[2]; first compound 0.2 µM
  relative viability: 0.851
[2]; first compound 2 µM
  relative viability: 0.927
[2]; first compound 6.325 µM
  relative viability: 0.858
[2]; first compound 20 µM
  relative viability: 0.919
[3]; first compound 0.2 µM
  relative viability: 0.147
[3]; first compound 0.6325 µM
  relative viability: 0.142
[3]; first compound 2 µM
  relative viability: 0.167
[3]; first compound 6.325 µM
  relative viability: 0.172
[3]; first compound 20 µM
  relative viability: 0.054
[4]; first compound 0.2 µM
  relative viability: 0.643
[4]; first compound 0.6325 µM
  relative viability: 0.67
[4]; first compound 2 µM
  relative viability: 0.675
[4]; first compound 6.325 µM
  relative viability: 0.563
[4]; first compound 20 µM
  relative viability: 0.399
[5]; first compound 0.2 µM
  relative viability: 0.465
[5]; first compound 0.6325 µM
  relative viability: 0.422
[5]; first compound 2 µM
  relative viability: 0.415
[5]; first compound 6.325 µM
  relative viability: 0.421
[5]; first compound 20 µM
  relative viability: 0.399
[6]; first compound 0.2 µM
  relative viability: 0.259
[6]; first compound 0.6325 µM
  relative viability: 0.27
[6]; first compound 2 µM
  relative viability: 0.256
[6]; first compound 6.325 µM
  relative viability: 0.232
[6]; first compound 20 µM
  relative viability: 0.159
[7]; first compound 0.2 µM
  relative viability: 0.244
[7]; first compound 0.6325 µM
  relative viability: 0.376
[7]; first compound 2 µM
  relative viability: 0.243
[7]; first compound 6.325 µM
  relative viability: 0.269
[7]; first compound 20 µM
  relative viability: 0.226
[8]; first compound 0.2 µM
  relative viability: 1.25
[8]; first compound 0.6325 µM
  relative viability: 1.07
[8]; first compound 2 µM
  relative viability: 1.04
[8]; first compound 6.325 µM
  relative viability: 0.847
[8]; first compound 20 µM
  relative viability: 0.925
[9]; first compound 0.2 µM
  relative viability: 0.851
[9]; first compound 0.6325 µM
  relative viability: 0.93
[9]; first compound 2 µM
  relative viability: 0.877
[9]; first compound 6.325 µM
  relative viability: 0.791
[9]; first compound 20 µM
  relative viability: 0.18
[10]; first compound 0.2 µM
  relative viability: 0.195
[10]; first compound 0.6325 µM
  relative viability: 0.194
[10]; first compound 2 µM
  relative viability: 0.219
[10]; first compound 6.325 µM
  relative viability: 0.148
[10]; first compound 20 µM
  relative viability: 0.245
[11]; first compound 0.2 µM
  relative viability: 0.995
[11]; first compound 0.6325 µM
  relative viability: 1.09
[11]; first compound 2 µM
  relative viability: 0.972
[11]; first compound 6.325 µM
  relative viability: 0.892
[11]; first compound 20 µM
  relative viability: 0.694
[12]; first compound 0.2 µM
  relative viability: 0.501
[12]; first compound 0.6325 µM
  relative viability: 0.42
[12]; first compound 2 µM
  relative viability: 0.487
[12]; first compound 6.325 µM
  relative viability: 0.329
[12]; first compound 20 µM
  relative viability: 0.335
